How the values were obtained:
TR-α = molecular target: T1, TR-α (Homo sapiens, UniProt P10827); assay: In vitro TR-α activity (in-house protocol); assay type: cell-based
T1 sequence (P10827 1-410 isoform P10827-2): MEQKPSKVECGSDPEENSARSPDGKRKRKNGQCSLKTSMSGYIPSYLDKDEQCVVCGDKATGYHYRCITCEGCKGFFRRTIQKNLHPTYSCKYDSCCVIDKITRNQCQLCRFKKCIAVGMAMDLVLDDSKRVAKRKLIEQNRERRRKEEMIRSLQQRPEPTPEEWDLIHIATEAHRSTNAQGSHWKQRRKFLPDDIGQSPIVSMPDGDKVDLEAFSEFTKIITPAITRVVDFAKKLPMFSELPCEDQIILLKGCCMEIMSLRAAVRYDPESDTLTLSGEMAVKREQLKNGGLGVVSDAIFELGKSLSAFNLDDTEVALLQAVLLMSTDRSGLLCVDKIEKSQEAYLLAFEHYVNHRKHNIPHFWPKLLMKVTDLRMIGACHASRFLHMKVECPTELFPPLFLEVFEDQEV
Description: (§1) Invitro TR-α & TR-β activities were determined as per in-house protocols and the results of representative compounds are provided in tables 1 & 2 below as a proof of the efficacies of the novel class of compounds disclosed above.

TR-β = molecular target: T2, TR-β (Homo sapiens, UniProt P10828); assay: In vitro TR-β activity (in-house protocol); assay type: cell-based; conditions: for fold induction at 0.001 µM: Conc. 1 nM; for fold induction at 0.001 µM / fold induction at 0.01 µM / fold induction at 0.1 µM / fold induction at 1 µM: read-out: TR-β Fold Induction w.r.t T3(100 nm); for fold induction at 0.01 µM: Conc. 10 nM; for fold induction at 0.1 µM: Conc. 100 nM; for fold induction at 1 µM: Conc. 1000 nM
T2 sequence (P10828 1-461): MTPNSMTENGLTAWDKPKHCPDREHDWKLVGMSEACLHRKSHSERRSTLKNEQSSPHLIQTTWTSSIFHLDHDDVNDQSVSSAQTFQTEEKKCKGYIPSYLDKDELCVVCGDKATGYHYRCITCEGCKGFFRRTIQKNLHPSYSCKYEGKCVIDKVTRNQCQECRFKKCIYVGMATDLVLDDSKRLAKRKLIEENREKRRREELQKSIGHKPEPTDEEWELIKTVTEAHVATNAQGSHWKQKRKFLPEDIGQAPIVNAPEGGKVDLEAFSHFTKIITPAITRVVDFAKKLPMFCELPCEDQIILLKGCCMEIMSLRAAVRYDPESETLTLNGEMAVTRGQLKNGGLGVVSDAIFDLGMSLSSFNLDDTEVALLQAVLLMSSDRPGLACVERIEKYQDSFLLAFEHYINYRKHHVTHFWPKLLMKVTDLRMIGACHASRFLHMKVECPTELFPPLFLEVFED
Description: as §1

Structure (SMILES) | EC50 (TR-α) [nM] | EC50 (TR-β) [nM] | TR-α Fold Induction w.r.t T3(100 nm) (TR-α; Conc. 1 nM) | TR-α Fold Induction w.r.t T3(100 nm) (TR-α; Conc. 10 nM) | TR-α Fold Induction w.r.t T3(100 nm) (TR-α; Conc. 100 nM) | TR-α Fold Induction w.r.t T3(100 nm) (TR-α; Conc. 1000 nM) | fold induction at 0.001 µM (TR-β) | fold induction at 0.01 µM (TR-β) | fold induction at 0.1 µM (TR-β) | fold induction at 1 µM (TR-β)
O=C(O)CN(C(=O)Oc1ccc(O)cc1)c1cc(Cl)c(Oc2ccc(O)c(C(=O)c3ccc(F)cc3)c2)c(Cl)c1 [Example 55, [{3,5-Dichloro-4-[3-(4-fluoro-benzoyl)-4-hydroxy-phenoxy]-phenyl}-(4-hydroxy-phenoxycarbonyl)-amino]-acetic acid] | 107 | 64.3 |  |  |  |  |  |  |  | 
O=C(O)CN(C(=O)Oc1ccc(O)cc1)c1cc(Cl)c(Oc2ccc(O)c(C(O)c3ccc(Cl)cc3)c2)c(Cl)c1 (centres unmarked) [Example 56, [(3,5-Dichloro-4-{3-[(4-chloro-phenyl)-hydroxy-methyl]-4-hydroxy-phenoxy}-phenyl)-(4-hydroxy-phenoxycarbonyl)-amino]-acetic acid] | 13.4 | 20.4 |  |  |  |  |  |  |  | 
O=C(O)CN(C(=O)Oc1ccc(O)cc1)c1cc(Cl)c(Oc2ccc(O)c(S(=O)(=O)N3CCCCCC3)c2)c(Cl)c1 [Example 57, [{4-[3-(Azepane-1-sulfonyl)-4-hydroxy-phenoxy]-3,5-dichloro-phenyl}-(4-hydroxy-phenoxycarbonyl)-amino]-acetic acid] |  |  | 21.61 | 24.62 | 35.93 | 60.40 | 12.6 | 14.8 | 23.6 | 62.5
O=C(O)CN(C(=O)Oc1ccc(O)cc1)c1cc(Cl)c(Oc2ccc(O)c(S(=O)(=O)N3CCOCC3)c2)c(Cl)c1 [Example 61, [{3,5-Dichloro-4-[4-hydroxy-3-(morpholine-4-sulfonyl)-phenoxy]-phenyl}-(4-hydroxy-phenoxycarbonyl)-amino]-acetic acid] |  |  | 11.55 | 12.50 | 12.30 | 28.11 | 10.2 | 12.2 | 28.9 | 85.2
O=C(O)CN(C(=O)Oc1ccc(O)cc1)c1cc(Cl)c(Oc2ccc(O)c(S(=O)(=O)N3CCCC3)c2)c(Cl)c1 [Example 63, [{3,5-Dichloro-4-[4-hydroxy-3-(pyrrolidine-1-sulfonyl)-phenoxy]-phenyl}-(4-hydroxy-phenoxycarbonyl)-amino]-acetic acid] | 337 | 254 |  |  |  |  |  |  |  | 
Cc1cccc(C(=O)c2cc(Oc3c(Cl)cc(N(CC(=O)O)C(=O)Oc4ccc(O)cc4)cc3Cl)ccc2O)c1 [Example 66, [{3,5-Dichloro-4-[4-hydroxy-3-(3-methyl-benzoyl)-phenoxy]-phenyl}-(4-hydroxy-phenoxycarbonyl)-amino]-acetic acid] |  |  | 20.56 | 15.36 | 18.11 | 25.75 | 36.7 | 25.9 | 40.7 | 55.2
O=C(O)CN(C(=O)Oc1ccc(O)cc1)c1cc(Br)c(Oc2ccc(O)c(C(=O)c3ccc(Cl)cc3)c2)c(Br)c1 [Example 67, [{3,5-Dibromo-4-[3-(4-chloro-benzoyl)-4-hydroxy-phenoxy]-phenyl}-(4-hydroxy-phenoxycarbonyl)-amino]-acetic acid] | 49 | 12.8 |  |  |  |  |  |  |  | 
